According to patent US20230242582A1, “NOVEL ALPHA-HELICAL DOUBLE-SIDED CELL PENETRATING PEPTIDE AND USE THEREOF” (CAMP THERAPEUTICS INC., priority 2020, published 2023):
Like-named read-outs stand apart in the source and are kept apart here. Residues, ends and D or L forms follow the SMILES beside them.

Legend:
MDA-MB-231 = experiment: IC50 of MTX in cell line MDA-MB-231; format: cell-based; settings: Homo sapiens
HeLa = experiment: IC50 of MTX in cell line HeLa; format: cell-based; settings: Homo sapiens
MDA-MB-231 cells = experiment: Cytotoxicity of MTX-bound peptide, WST-1 assay; format: cell-based
Description: (§1) Specifically, HeLa cells were cultured in DMEM at a condition of 37° C. with 5% CO2. The cells were respectively cultured in a cell culture plate, and then removed with trypsin. The cells were seeded at 1×10^4 cells per well in a 96-well plate. After 24 hours, the peptide was added to the media, and culture was performed again at a condition of 37° C. with 5% CO2 for 24 hours. 10 uL of WST-1 reagent was added per well, and reaction was allowed to proceed for 30 minutes at a condition of 37° C. with 5% CO2. Then, UV absorbance was measured at 450/700 nm with a 96-well plate reader.
In order to identify a drug delivery effect of a peptide, a peptide in which methotrexate (MTX) is bound to the N-terminus of one monomer of a dimer was synthesized according to a known method (Kim et al. Biomacromolecules 2016).
MDA-MB-231 cells were seeded in a 96-well plate at a density of 2.5×10^3 cells/well, and treated with the MTX-bound peptide for 48 hours starting from the next day.

NIH-3T3 = experiment: IC50 of MTX in cell line NIH-3T3; format: cell-based; settings: Mus musculus, NIH3T3
HeLa cells [1] = experiment: Cytotoxicity of dimeric peptides, WST-1 assay; format: cell-based, human; settings: for ratio: IC50 relative to LK-3, HeLa cells
Description: Cytotoxicity was identified using WST-1 assay by treating HeLa cells with peptides in a 96-well plate (1×10^4 cells/well) for 24 hours.
as §1

HeLa cells [2] = experiment: Cell-penetrating ability of fluorescently labeled dimeric peptides, flow cytometry; format: cell-based, human; settings: at 62.5 nM, FIG. 6A
Description: During preparation of CPPs in dimeric form shown in Tables 1 to 3, one monomer thereof was prepared in a form where 5-TAMRA fluorescence was attached to the N-terminus, instead of acetyl. A monomer with acetyl and a monomer with 5-TAMRA fluorescence were mixed in a molar ratio of 1:1, and subjected to an oxidation condition in air to produce a dimeric form in which only one fluorescence was labeled per dimer molecule. Then, cell-penetrating ability of each dimer was identified. Each fluorescently labeled peptide was used to treat HeLa cells (5×10^4 cells/well), which are human-derived cells, and a ratio of the number of cells with fluorescence to the total number of cells was obtained through flow cytometry.
FIGS. 4B to 4D illustrate results obtained by treating cells with respective dimers at the same concentration (62.5 nM), measuring fluorescence intensity of the cells by flow cytometry, and relatively comparing the fluorescence intensity.
Based on cell-penetrating ability and cytotoxicity of the dimeric peptides of the present disclosure, correlation therebetween was identified. Cytotoxicity (IC50^−1) and cell-penetrating ability of the respective peptides were identified at 62.5 nM according to the methods described in Examples 5 and 6, and then graphically represented.

IL-2 = experiment: Decrease of extracellularly secreted IL-2 in Jurkat cells, ELISA; format: cell-based; settings: CsA complex with diLR10 versus CsA only
Description: The hydrophobic drug cyclosporine (CsA) was mixed with a peptide and incubated at room temperature for 20 minutes to create a complex with the hydrophobic drug. Then, Jurkat cells (1.0×10^4 cells/well) were treated with the complex for 4.5 hours. An amount of extracellularly secreted IL-2 was measured by an ELISA method to identify, through IC50 values, whether an anti-inflammatory effect caused by CsA, which corresponded to a relative decrease in IL-2, was enhanced by the cell-penetrating peptide diLR10.

[3] = Intracellular delivery of CsA with fluorescence by non-covalent bonding with peptide; format: cell-based; settings: FIG. 8
Description: For the peptides with various compositions of lysine and arginine, their intracellular delivery by non-covalent bonding with CsA was identified using CsA with fluorescence.

CN(Cc1cnc2nc(N)nc(N)c2n1)c1ccc(C(=O)N[C@@H](CCC(=O)O)C(=O)O)cc1 [MTX, methotrexate]
IC50 (MDA-MB-231): 970 nM | IC50 (HeLa): ~31 nM | IC50 (MDA-MB-231 cells; Homo sapiens, 48 hours, MTX bound to N-terminus of one monomer of the dimer, MTX column = MTX alone, read-out: IC50 of MTX-bound peptide): 972 nM | IC50 (NIH-3T3): 37 nM

CC[C@H](C)[C@H](NC(C)=O)C(=O)N[C@H]1CSSC[C@@H](C(=O)N[C@@H](CCCNC(=N)N)C(N)=O)NC(=O)[C@H]([C@@H](C)CC)NC(=O)[C@H](CCCNC(=N)N)NC(=O)[C@H](CCCNC(=N)N)NC(=O)[C@H]([C@@H](C)CC)NC(=O)[C@H]([C@@H](C)CC)NC(=O)[C@H](CCCNC(=N)N)NC(=O)[C@@H](NC(=O)[C@@H](NC(C)=O)[C@@H](C)CC)CSSC[C@@H](C(=O)N[C@@H](CCCNC(=N)N)C(N)=O)NC(=O)[C@H]([C@@H](C)CC)NC(=O)[C@H](CCCNC(=N)N)NC(=O)[C@H](CCCNC(=N)N)NC(=O)[C@H]([C@@H](C)CC)NC(=O)[C@H]([C@@H](C)CC)NC(=O)[C@H](CCCNC(=N)N)NC1=O [diIR10] (HELM PEPTIDE1{[ac].I.C.R.I.I.R.R.I.C.R.[am]}|PEPTIDE2{[ac].I.C.R.I.I.R.R.I.C.R.[am]}$PEPTIDE1,PEPTIDE2,3:R3-10:R3|PEPTIDE1,PEPTIDE2,10:R3-3:R3$$$V2.0; bridges inferred)
ratio (HeLa cells [1]): 3.24 | ratio of cell-penetrating ability to cytotoxicity (IC50^−1) (HeLa cells [2]): low toxicity as compared with cell-penetrating ability

CC(=O)N[C@@H](CC(C)C)C(=O)N[C@H]1CSSC[C@@H](C(=O)N[C@@H](CCCCN)C(N)=O)NC(=O)[C@H](CC(C)C)NC(=O)[C@H](CCCCN)NC(=O)[C@H](CCCCN)NC(=O)[C@H](CC(C)C)NC(=O)[C@H](CC(C)C)NC(=O)[C@H](CCCCN)NC(=O)[C@@H](NC(=O)[C@H](CC(C)C)NC(C)=O)CSSC[C@@H](C(=O)N[C@@H](CCCCN)C(N)=O)NC(=O)[C@H](CC(C)C)NC(=O)[C@H](CCCCN)NC(=O)[C@H](CCCCN)NC(=O)[C@H](CC(C)C)NC(=O)[C@H](CC(C)C)NC(=O)[C@H](CCCCN)NC1=O [diLK10] (HELM PEPTIDE1{[ac].L.C.K.L.L.K.K.L.C.K.[am]}|PEPTIDE2{[ac].L.C.K.L.L.K.K.L.C.K.[am]}$PEPTIDE1,PEPTIDE2,3:R3-10:R3|PEPTIDE1,PEPTIDE2,10:R3-3:R3$$$V2.0)
IC50 (MDA-MB-231 cells; 48 hours, MTX bound to N-terminus of one monomer of the dimer, MTX column = MTX alone, read-out: IC50 of MTX-bound peptide): 45.9 nM | IC50 (MDA-MB-231 cells; peptide itself, without MTX, read-out: IC50): ~13700 nM | IC50 (HeLa cells [1]; HeLa cells, WST-1, peptide treatment 24 hours): 12400 nM | ratio (HeLa cells [1]): 2.79

CC(=O)N[C@@H](CC(C)C)C(=O)N[C@H]1CSSC[C@@H](C(=O)N[C@@H](CCCNC(=N)N)C(N)=O)NC(=O)[C@H](CC(C)C)NC(=O)[C@H](CCCNC(=N)N)NC(=O)[C@H](CCCNC(=N)N)NC(=O)[C@H](CC(C)C)NC(=O)[C@H](CC(C)C)NC(=O)[C@H](CCCNC(=N)N)NC(=O)[C@@H](NC(=O)[C@H](CC(C)C)NC(C)=O)CSSC[C@@H](C(=O)N[C@@H](CCCNC(=N)N)C(N)=O)NC(=O)[C@H](CC(C)C)NC(=O)[C@H](CCCNC(=N)N)NC(=O)[C@H](CCCNC(=N)N)NC(=O)[C@H](CC(C)C)NC(=O)[C@H](CC(C)C)NC(=O)[C@H](CCCNC(=N)N)NC1=O [diLR10] (HELM PEPTIDE1{[ac].L.C.R.L.L.R.R.L.C.R.[am]}|PEPTIDE2{[ac].L.C.R.L.L.R.R.L.C.R.[am]}$PEPTIDE1,PEPTIDE2,3:R3-10:R3|PEPTIDE1,PEPTIDE2,10:R3-3:R3$$$V2.0; bridges inferred)
decrease of IC50 value (IL-2): 21% | increase in IC50 value as compared with LK-3 (HeLa cells [1]; HeLa cells): about 5 fold | ratio (HeLa cells [1]): 4.26 | ratio of cell-penetrating ability to cytotoxicity (IC50^−1) (HeLa cells [2]): low toxicity as compared with cell-penetrating ability

diLR10^R3K: dimer of monomer LR10^R3K, Ac-LCKLLRRLCR-NH2 (SEQ ID NO 30) (also: dimer of two monomers linked by interchain disulfide bonds)
intracellular delivery ability for CsA [3]: best intracellular delivery ability for CsA
